Measurements reported in PubChem BioAssay (NCI).
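Grown in 96-well plates, cells were treated for 48 hours with each compound at five concentrations. Insufficient inhibition: endpoint recorded as highest concentration tested. TGI marks complete inhibition of growth.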

Columns and labels:
Assay in all cases: NCI tumour cell line growth inhibition, 48 h
786-0 renal = tested on: 786-0 renal
A498 renal = tested on: A498 renal
A549 NSCLC = tested on: A549 NSCLC
ACHN renal = tested on: ACHN renal
BT-549 breast = tested on: BT-549 breast
CAKI-1 renal = tested on: CAKI-1 renal
CCRF-CEM leukemia = tested on: CCRF-CEM leukemia
DU-145 prostate = tested on: DU-145 prostate
EKVX NSCLC = tested on: EKVX NSCLC
HCC-2998 colon = tested on: HCC-2998 colon
HCT-116 colon = tested on: HCT-116 colon
HCT-15 colon = tested on: HCT-15 colon
HL-60(TB) leukemia = tested on: HL-60(TB) leukemia
HOP-62 NSCLC = tested on: HOP-62 NSCLC
HOP-92 NSCLC = tested on: HOP-92 NSCLC
HS 578T breast = tested on: HS 578T breast
HT29 colon = tested on: HT29 colon
IGROV1 ovarian = tested on: IGROV1 ovarian
K-562 leukemia = tested on: K-562 leukemia
KM12 colon = tested on: KM12 colon
LOX IMVI melanoma = tested on: LOX IMVI melanoma
M14 melanoma = tested on: M14 melanoma
MALME-3M melanoma = tested on: MALME-3M melanoma
MCF7 breast = tested on: MCF7 breast
MDA-MB-231 breast = tested on: MDA-MB-231 breast
MDA-MB-435 = tested on: MDA-MB-435
MDA-N = tested on: MDA-N
MOLT-4 leukemia = tested on: MOLT-4 leukemia
NCI-H226 lung = tested on: NCI-H226 lung
NCI-H23 lung = tested on: NCI-H23 lung
NCI-H460 lung = tested on: NCI-H460 lung
NCI-H522 lung = tested on: NCI-H522 lung
NCI/ADR-RES ovarian = tested on: NCI/ADR-RES ovarian
OVCAR-3 ovarian = tested on: OVCAR-3 ovarian
OVCAR-4 ovarian = tested on: OVCAR-4 ovarian
OVCAR-5 ovarian = tested on: OVCAR-5 ovarian
OVCAR-8 ovarian = tested on: OVCAR-8 ovarian
PC-3 prostate = tested on: PC-3 prostate
RPMI-8226 leukemia = tested on: RPMI-8226 leukemia
RXF 393 renal = tested on: RXF 393 renal
SF-268 CNS = tested on: SF-268 CNS
SF-295 CNS = tested on: SF-295 CNS
SF-539 CNS = tested on: SF-539 CNS
SK-MEL-28 melanoma = tested on: SK-MEL-28 melanoma
SK-MEL-5 melanoma = tested on: SK-MEL-5 melanoma
SN12C renal = tested on: SN12C renal
SNB-19 CNS = tested on: SNB-19 CNS
SNB-75 CNS = tested on: SNB-75 CNS
SR leukemia = tested on: SR leukemia
SW-620 colon = tested on: SW-620 colon
T-47D breast = tested on: T-47D breast
TK-10 renal = tested on: TK-10 renal
U251 CNS = tested on: U251 CNS
UACC-257 melanoma = tested on: UACC-257 melanoma
UACC-62 melanoma = tested on: UACC-62 melanoma
UO-31 renal = tested on: UO-31 renal
COLO 205 colon = tested on: COLO 205 colon
SK-MEL-2 melanoma = tested on: SK-MEL-2 melanoma
SK-OV-3 ovarian = tested on: SK-OV-3 ovarian

Measured: TGI

O=C(c1ccc([N+](=O)[O-])cc1)N1CCCC1
not listed: COLO 205 colon | SK-MEL-2 melanoma | SK-OV-3 ovarian
> 100 µM: all other assays above

CCc1nc2c(c(N(C)C)c1C(=O)OC)CCc1ccccc1-2
79 µM: NCI-H226 lung
40.4 µM: UACC-62 melanoma
81.5 µM: MDA-N
35.4 µM: OVCAR-3 ovarian
23 µM: MOLT-4 leukemia
40 µM: PC-3 prostate
63.5 µM: HOP-62 NSCLC
68.9 µM: UACC-257 melanoma
77.3 µM: K-562 leukemia
39.5 µM: SK-MEL-2 melanoma
67.5 µM: HCC-2998 colon
48.2 µM: MCF7 breast
65.6 µM: MDA-MB-435
32.9 µM: SK-MEL-5 melanoma | SR leukemia
51.4 µM: SK-OV-3 ovarian
74.2 µM: M14 melanoma
87.8 µM: MDA-MB-231 breast
46.6 µM: RPMI-8226 leukemia
41.8 µM: COLO 205 colon
75.3 µM: A498 renal
73.8 µM: RXF 393 renal
40.9 µM: DU-145 prostate
45.6 µM: NCI-H522 lung
50.9 µM: SF-295 CNS
58.1 µM: T-47D breast
9.43 µM: CCRF-CEM leukemia | HL-60(TB) leukemia
> 100 µM: all other assays above
